Data on 1 molecule can be found in patent US20250057828A1, “COMBINATION OF AN A2-ADRENOCEPTOR SUBTYPE C (ALPHA-2C) ANTAGONIST WITH A NOREPINEPHRINE REUPTAKE INHIBITOR FOR THE TREATMENT OF SLEEP APNEA” (priority 2021, published 2025).

The experiment concerns pig model of obstructive sleep apnea (OSA). Put plainly: pig model of obstructive sleep apnea (OSA): collapsibility of the upper respiratory tract under negative pressure. The format is in vivo, German Landrace pigs. The settings on record: for Percent pigs without collaps −50 cm H2O, % / Percent pigs without collaps −100 cm H2O, % / Percent pigs without collaps −150 cm H2O, %: intravenous bolus 1 mg/kg + infusion 0.275 mg/kg/h for four hours. From the text:
The therapeutic potential of the combination of an α2-Adrenoceptor subtype C (alpha-2C) antagonists with a muscarinic receptor antagonist according to the present invention in sleep apnea can be assessed preclinically in a pig model of obstructive sleep apnea (OSA).
Using negative pressure, it is possible to induce collapse and thus obstruction of the upper respiratory tract in anaesthetized, spontaneously breathing pigs (Wirth K. J. et al., Sleep 36(5) (2013) pp. 699-708).
German Landrace pigs are used for the model. The pigs are anaesthetized and tracheotomized. Two tracheal cannulas are inserted into the trachea, one into the rostral part and the other into the caudal part of the trachea. Using a connection piece, the rostral cannula is connected to a tube to the negative pressure device and to the distal tracheal cannula. The distal tracheal cannula is additionally connected to a tube with an open end to atmosphere via a connection piece that served for free tracheal breathing, circumventing the upper airway. By appropriate opening and clamping of those tubes breathing can be switched from nasal breathing to breathing through the caudal tracheal cannula, circumventing the upper airway, and the (isolated) upper airway can be connected to the negative pressure device, causing airflow in the inspiratory direction.
At certain points in time, the collapsibility of the upper respiratory tract is tested by having the pig breathe via the caudal cannula and applying negative pressures of −50, −100 and −150 cm water head (cm H2O) to the upper respiratory tract. This causes the upper respiratory tract to collapse, which manifests itself in an interruption of the airflow and a pressure drop in the tube system. This test is conducted prior to the administration of the test substance and at certain intervals after the administration of the test substance. An appropriately effective test substance can prevent this collapse of the respiratory tract in the inspiratory phase.

With `CCN(CC)CC#CCOC(=O)C(O)(c1ccccc1)C1CCCCC1` (stereo not shown) [oxybutynin, Oxybutynin], the “Percent pigs without collaps −50 cm H2O, %” value runs as follows: (0 min) 0%; (10 min) 0%; (30 min) 0%; (60 min) 0%; (120 min) 0%; (180 min) 0%. Under “240 min”, the “Percent pigs without collaps −50 cm H2O, %” value amounted to 0%. For the same molecule, the “Percent pigs without collaps −100 cm H2O, %” value (0 min) is given as 0%; the “Percent pigs without collaps −100 cm H2O, %” value (10 min) is given as 0%; the “Percent pigs without collaps −100 cm H2O, %” value (30 min) was determined as 0%; the “Percent pigs without collaps −100 cm H2O, %” value (60 min) came out at 0%; the “Percent pigs without collaps −100 cm H2O, %” value (120 min) turned out to be 0%; the “Percent pigs without collaps −100 cm H2O, %” value (180 min) was 0%. In addition, the “Percent pigs without collaps −100 cm H2O, %” value (240 min) was 0%. The “Percent pigs without collaps −150 cm H2O, %” value (0 min) was determined as 0%; the “Percent pigs without collaps −150 cm H2O, %” value (10 min) is given as 0%; the “Percent pigs without collaps −150 cm H2O, %” value (30 min) came out at 0%; the “Percent pigs without collaps −150 cm H2O, %” value (60 min) is recorded as 0%; the “Percent pigs without collaps −150 cm H2O, %” value (120 min) was 0%; the “Percent pigs without collaps −150 cm H2O, %” value (180 min) is 0%. The “Percent pigs without collaps −150 cm H2O, %” value (240 min) was found to be 0%. Further, where the note is “intravenous bolus 1 mg/kg followed by infusion of 0,275 mg/kg/h for four hours”, the “inhibited upper airway collapsibility at all negative pressures of −50, −100 and −150 cm head (cm H2O) in all pigs” value was “at no time”.
